Test results published in article PMC12858467, “In vitro toxicokinetics and metabolic profiling of methoxycathinones and methylthiocathinones using human liver systems and hyphenated mass spectrometry” (Archives of Toxicology, 2025).
Where two headings read alike, the source gives them in different places.

Columns and labels:
Assay type in all cases: in vitro ADME
[1] = In vitro plasma protein binding (ultrafiltration, Centrifree); conditions: human, pooled human blood plasma, 30 min, 37 °C, ultrafiltration
Description: PPB was investigated according to a previous study with minor modifications (Kroesen et al. [2025]). Fresh and pooled human blood plasma (450 µL) was spiked with 50 µL of a 5 µM methanolic solution of 4MeO-NE-BP, 4MeO-αP-BP, 4MeO-αP-VP, 4MeS-NE-BP, 4MeS-αP-BP, or 4MeS-αMor-PrP. The mixture was incubated for 30 min at 37 °C and with gentle shaking at 200 rpm. […] The Centrifree devices were centrifuged for 35 min at 1600 × g to obtain 100 µL of the ultrafiltrate (UF). […] Experiments were performed in quadruplicate. Fraction unbound (fu) and PPB were determined by comparing the area ratios of the compound and trimipramine-d3 as an internal standard in the UF and GA using the following equations:1 fu=peak area ratiocompoundUF/ISUF/peak area ratiocompoundGA/ISGA 2 PPB[\%]=1-fu∗100.

[2] = system: pooled human liver S9 fraction (pHLS9) and HepaRG cells; experiment: In vitro metabolism by pHLS9 and HepaRG cells (LC-HRMS/MS metabolite identification); conditions: 25 µM substrate
CYP2D6 = molecular target: T1, CYP2D6 (Homo sapiens, UniProt P10635); experiment: Monooxygenases activity screening, CYP2D6; set-up: key to one-step metabolite detected in CYP2D6 incubation: +, detected; -, not detected; conditions: 30 min, 37 °C
T1 construct: purchased Discovery Life Sciences (Huntsville, LA, USA); host or cells: baculovirus-infected insect cells (microsomes, Supersomes)
T1 sequence (P10635 whole entry): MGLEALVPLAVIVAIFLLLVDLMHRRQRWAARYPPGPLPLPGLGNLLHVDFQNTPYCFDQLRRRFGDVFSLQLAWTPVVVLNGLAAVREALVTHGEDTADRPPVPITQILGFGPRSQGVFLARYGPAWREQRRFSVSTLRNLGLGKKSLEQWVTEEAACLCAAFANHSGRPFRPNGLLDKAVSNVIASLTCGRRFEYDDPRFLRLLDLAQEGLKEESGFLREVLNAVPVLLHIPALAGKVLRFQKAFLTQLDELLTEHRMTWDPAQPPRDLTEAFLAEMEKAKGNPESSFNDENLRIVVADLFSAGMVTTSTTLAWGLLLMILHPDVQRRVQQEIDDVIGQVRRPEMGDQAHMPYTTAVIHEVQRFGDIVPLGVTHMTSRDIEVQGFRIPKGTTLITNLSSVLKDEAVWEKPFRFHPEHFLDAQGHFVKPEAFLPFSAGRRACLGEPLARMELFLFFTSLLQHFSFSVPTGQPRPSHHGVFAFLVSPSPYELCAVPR
Description: (§1) For incubations with CYP2A6 or CYP2C9, phosphate buffer was replaced with 90 mM Tris buffer, according to the manufacturer’s guideline. […] All incubations were done in duplicate and concentrations were fixed. Verapamil (25 µM) was incubated as a positive control.

CYP1A2 = molecular target: T2, CYP1A2 (Homo sapiens, UniProt P05177); experiment: Monooxygenases activity screening, CYP1A2; set-up: key: +, detected; -, not detected; conditions: substrate 4MeO-αP-BP 25 µM, 30 min, 37 °C; Table S3.2
T2 construct: purchased Discovery Life Sciences (Huntsville, LA, USA); host or cells: baculovirus-infected insect cells (microsomes, Supersomes)
T2 sequence (P05177 1-516): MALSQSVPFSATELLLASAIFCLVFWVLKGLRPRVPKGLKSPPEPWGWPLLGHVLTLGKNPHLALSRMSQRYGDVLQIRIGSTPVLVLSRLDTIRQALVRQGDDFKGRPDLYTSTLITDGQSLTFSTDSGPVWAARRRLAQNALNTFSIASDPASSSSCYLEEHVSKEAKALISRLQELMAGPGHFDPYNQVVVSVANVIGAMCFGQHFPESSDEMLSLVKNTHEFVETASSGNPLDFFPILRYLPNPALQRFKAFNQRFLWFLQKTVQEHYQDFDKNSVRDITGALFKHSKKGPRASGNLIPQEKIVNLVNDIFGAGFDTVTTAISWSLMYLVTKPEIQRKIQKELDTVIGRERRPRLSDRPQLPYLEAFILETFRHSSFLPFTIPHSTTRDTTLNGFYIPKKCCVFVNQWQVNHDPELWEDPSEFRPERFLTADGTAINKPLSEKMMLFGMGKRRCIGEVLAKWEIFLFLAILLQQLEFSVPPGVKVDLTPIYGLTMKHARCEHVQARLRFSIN
Description: as §1

CYP2A6 = molecular target: T3, CYP2A6 (Homo sapiens, UniProt P11509); experiment: Monooxygenases activity screening, CYP2A6; set-up: key: +, detected; -, not detected; conditions: substrate 4MeO-αP-BP 25 µM, 30 min, 37 °C; Table S3.2
T3 construct: purchased Discovery Life Sciences (Huntsville, LA, USA); host or cells: baculovirus-infected insect cells (microsomes, Supersomes)
T3 sequence (P11509 1-494): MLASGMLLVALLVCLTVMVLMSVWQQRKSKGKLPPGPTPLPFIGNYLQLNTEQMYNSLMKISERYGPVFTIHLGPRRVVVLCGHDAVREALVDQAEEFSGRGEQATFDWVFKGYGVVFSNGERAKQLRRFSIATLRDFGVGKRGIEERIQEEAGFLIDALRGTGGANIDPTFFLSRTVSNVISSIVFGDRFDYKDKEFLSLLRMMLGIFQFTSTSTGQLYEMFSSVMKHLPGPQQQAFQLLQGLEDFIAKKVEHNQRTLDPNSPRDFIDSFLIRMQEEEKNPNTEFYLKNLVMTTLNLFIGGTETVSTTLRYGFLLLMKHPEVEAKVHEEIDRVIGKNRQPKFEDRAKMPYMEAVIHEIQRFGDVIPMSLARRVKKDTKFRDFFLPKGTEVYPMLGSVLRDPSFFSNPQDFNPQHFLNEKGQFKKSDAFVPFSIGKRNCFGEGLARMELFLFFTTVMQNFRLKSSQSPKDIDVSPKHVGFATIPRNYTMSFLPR
Description: as §1

CYP2B6 = molecular target: T4, CYP2B6 (Homo sapiens, UniProt P20813); experiment: Monooxygenases activity screening, CYP2B6; set-up: key: +, detected; -, not detected; conditions: substrate 4MeO-αP-BP 25 µM, 30 min, 37 °C; Table S3.2
T4 construct: purchased Discovery Life Sciences (Huntsville, LA, USA); host or cells: baculovirus-infected insect cells (microsomes, Supersomes)
T4 sequence (P20813 1-491): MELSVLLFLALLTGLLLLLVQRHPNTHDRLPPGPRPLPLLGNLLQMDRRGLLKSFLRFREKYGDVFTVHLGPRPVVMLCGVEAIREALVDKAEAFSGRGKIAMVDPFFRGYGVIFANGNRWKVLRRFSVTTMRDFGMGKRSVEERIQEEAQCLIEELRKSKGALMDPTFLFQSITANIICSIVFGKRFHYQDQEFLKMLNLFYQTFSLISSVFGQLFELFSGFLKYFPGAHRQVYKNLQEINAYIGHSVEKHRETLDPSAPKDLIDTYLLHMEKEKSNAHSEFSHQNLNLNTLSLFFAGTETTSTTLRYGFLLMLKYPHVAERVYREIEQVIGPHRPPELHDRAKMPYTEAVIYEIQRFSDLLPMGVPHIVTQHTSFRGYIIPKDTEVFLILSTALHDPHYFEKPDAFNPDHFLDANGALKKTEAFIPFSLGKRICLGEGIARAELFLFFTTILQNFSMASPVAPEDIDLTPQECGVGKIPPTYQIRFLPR
Description: as §1

CYP2C8 = molecular target: T5, CYP2C8 (Homo sapiens, UniProt P10632); experiment: Monooxygenases activity screening, CYP2C8; set-up: key: +, detected; -, not detected; conditions: substrate 4MeO-αP-BP 25 µM, 30 min, 37 °C; Table S3.2
T5 construct: purchased Discovery Life Sciences (Huntsville, LA, USA); host or cells: baculovirus-infected insect cells (microsomes, Supersomes)
T5 sequence (P10632 1-490): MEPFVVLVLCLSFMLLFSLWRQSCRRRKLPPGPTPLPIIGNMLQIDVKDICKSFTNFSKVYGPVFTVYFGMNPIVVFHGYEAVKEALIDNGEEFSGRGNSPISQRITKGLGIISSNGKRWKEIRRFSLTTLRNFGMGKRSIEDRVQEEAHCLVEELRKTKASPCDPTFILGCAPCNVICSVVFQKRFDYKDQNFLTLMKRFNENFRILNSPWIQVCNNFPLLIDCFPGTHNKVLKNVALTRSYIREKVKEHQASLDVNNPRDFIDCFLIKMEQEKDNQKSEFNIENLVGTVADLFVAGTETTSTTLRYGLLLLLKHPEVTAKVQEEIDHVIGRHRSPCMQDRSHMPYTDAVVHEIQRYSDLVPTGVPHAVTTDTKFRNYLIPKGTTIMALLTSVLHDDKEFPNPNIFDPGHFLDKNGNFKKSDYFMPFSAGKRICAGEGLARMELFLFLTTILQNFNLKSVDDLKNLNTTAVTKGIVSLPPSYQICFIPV
Description: as §1

CYP2C9 = molecular target: T6, CYP2C9 (Homo sapiens, UniProt P11712); experiment: Monooxygenases activity screening, CYP2C9; set-up: key: +, detected; -, not detected; conditions: substrate 4MeO-αP-BP 25 µM, 30 min, 37 °C; Table S3.2
T6 construct: purchased Discovery Life Sciences (Huntsville, LA, USA); host or cells: baculovirus-infected insect cells (microsomes, Supersomes)
T6 sequence (P11712 whole entry): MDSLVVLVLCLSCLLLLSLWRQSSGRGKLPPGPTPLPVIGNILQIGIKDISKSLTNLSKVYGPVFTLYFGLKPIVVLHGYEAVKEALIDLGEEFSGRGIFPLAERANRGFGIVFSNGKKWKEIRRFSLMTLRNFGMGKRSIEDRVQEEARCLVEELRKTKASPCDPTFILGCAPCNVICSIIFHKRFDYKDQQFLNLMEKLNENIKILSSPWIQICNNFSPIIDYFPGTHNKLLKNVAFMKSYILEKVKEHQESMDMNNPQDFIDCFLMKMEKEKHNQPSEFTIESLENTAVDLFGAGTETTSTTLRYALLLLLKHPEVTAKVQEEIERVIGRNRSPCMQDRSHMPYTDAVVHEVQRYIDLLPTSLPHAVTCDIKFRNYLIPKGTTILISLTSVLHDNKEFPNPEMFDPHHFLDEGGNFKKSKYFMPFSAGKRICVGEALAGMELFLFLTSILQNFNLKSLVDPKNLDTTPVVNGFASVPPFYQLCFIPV
Description: as §1

CYP2C19 = molecular target: T7, CYP2C19 (Homo sapiens, UniProt P33261); experiment: Monooxygenases activity screening, CYP2C19; set-up: key: +, detected; -, not detected; conditions: substrate 4MeO-αP-BP 25 µM, 30 min, 37 °C; Table S3.2
T7 construct: purchased Discovery Life Sciences (Huntsville, LA, USA); host or cells: baculovirus-infected insect cells (microsomes, Supersomes)
T7 sequence (P33261 whole entry): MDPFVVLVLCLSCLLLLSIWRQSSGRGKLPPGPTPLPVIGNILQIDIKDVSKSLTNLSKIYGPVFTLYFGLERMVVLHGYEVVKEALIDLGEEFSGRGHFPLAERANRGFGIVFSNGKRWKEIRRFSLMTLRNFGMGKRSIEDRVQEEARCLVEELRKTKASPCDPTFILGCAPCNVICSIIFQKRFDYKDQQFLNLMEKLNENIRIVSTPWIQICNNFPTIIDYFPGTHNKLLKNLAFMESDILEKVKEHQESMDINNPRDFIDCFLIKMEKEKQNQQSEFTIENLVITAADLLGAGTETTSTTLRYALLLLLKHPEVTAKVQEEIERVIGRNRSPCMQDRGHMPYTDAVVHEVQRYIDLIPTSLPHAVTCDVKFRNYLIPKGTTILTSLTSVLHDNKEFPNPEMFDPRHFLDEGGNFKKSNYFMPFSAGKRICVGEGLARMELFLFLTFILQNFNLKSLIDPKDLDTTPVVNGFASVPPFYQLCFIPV
Description: as §1

CYP2E1 = molecular target: T8, CYP2E1 (Homo sapiens, UniProt P05181); experiment: Monooxygenases activity screening, CYP2E1; set-up: key: +, detected; -, not detected; conditions: substrate 4MeO-αP-BP 25 µM, 30 min, 37 °C; Table S3.2
T8 construct: purchased Discovery Life Sciences (Huntsville, LA, USA); host or cells: baculovirus-infected insect cells (microsomes, Supersomes)
T8 sequence (P05181 whole entry): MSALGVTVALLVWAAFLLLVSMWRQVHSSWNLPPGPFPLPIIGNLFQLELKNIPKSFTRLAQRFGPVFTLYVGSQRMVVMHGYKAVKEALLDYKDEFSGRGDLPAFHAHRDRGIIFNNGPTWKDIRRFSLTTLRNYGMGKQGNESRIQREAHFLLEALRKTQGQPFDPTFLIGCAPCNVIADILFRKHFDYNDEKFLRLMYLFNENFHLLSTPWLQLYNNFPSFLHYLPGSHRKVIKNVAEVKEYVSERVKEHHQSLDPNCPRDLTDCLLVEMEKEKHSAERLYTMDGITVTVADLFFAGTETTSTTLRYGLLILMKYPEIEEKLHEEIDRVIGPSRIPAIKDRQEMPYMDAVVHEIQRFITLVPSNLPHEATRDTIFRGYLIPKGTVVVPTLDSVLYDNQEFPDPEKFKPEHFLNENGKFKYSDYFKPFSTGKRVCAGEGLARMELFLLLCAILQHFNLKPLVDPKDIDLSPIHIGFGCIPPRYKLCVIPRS
Description: as §1

CYP3A4 = molecular target: T9, CYP3A4 (Homo sapiens, UniProt P08684); experiment: Monooxygenases activity screening, CYP3A4; set-up: key: +, detected; -, not detected; conditions: substrate 4MeO-αP-BP 25 µM, 30 min, 37 °C; Table S3.2
T9 construct: purchased Discovery Life Sciences (Huntsville, LA, USA); host or cells: baculovirus-infected insect cells (microsomes, Supersomes)
T9 sequence (P08684 whole entry): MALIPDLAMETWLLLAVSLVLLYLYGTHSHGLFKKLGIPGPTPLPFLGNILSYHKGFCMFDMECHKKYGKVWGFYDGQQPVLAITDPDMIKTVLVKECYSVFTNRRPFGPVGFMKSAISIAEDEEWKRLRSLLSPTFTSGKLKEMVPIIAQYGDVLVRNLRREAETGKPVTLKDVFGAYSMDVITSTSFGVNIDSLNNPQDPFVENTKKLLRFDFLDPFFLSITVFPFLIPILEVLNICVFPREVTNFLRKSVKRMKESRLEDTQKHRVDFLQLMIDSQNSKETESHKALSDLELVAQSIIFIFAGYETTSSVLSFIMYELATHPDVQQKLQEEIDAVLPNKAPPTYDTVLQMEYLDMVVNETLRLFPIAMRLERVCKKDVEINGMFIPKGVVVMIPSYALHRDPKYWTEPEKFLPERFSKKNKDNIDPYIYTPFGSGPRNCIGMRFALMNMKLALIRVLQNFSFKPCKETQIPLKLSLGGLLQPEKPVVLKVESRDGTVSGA
Description: as §1

CYP3A5 = molecular target: T10, CYP3A5 (Homo sapiens, UniProt P20815); experiment: Monooxygenases activity screening, CYP3A5; set-up: key: +, detected; -, not detected; conditions: substrate 4MeO-αP-BP 25 µM, 30 min, 37 °C; Table S3.2
T10 construct: purchased Discovery Life Sciences (Huntsville, LA, USA); host or cells: baculovirus-infected insect cells (microsomes, Supersomes)
T10 sequence (P20815 whole entry): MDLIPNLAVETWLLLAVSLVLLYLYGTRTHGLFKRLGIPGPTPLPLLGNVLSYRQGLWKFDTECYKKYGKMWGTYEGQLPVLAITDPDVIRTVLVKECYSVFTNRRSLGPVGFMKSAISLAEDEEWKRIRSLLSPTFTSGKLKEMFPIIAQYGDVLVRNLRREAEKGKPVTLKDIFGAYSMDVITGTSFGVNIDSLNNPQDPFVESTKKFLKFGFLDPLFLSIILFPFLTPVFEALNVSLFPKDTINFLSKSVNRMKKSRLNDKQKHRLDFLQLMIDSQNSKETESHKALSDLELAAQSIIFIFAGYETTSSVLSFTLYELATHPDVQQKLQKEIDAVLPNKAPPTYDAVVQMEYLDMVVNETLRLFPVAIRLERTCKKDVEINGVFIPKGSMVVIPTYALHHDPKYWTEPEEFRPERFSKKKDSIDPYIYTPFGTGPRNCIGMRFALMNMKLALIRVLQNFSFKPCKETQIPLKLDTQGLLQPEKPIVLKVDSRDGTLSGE
Description: as §1

[3] = molecular target: T11, flavin-containing monooxygenase 3 (FMO3) (Homo sapiens, UniProt P31513); experiment: Monooxygenases activity screening, FMO3; set-up: key: +, detected; -, not detected; conditions: substrate 4MeO-αP-BP 25 µM, 30 min, 37 °C; Table S3.2
T11 construct: purchased Discovery Life Sciences (Huntsville, LA, USA); host or cells: baculovirus-infected insect cells (microsomes, Supersomes)
T11 sequence (P31513 1-532): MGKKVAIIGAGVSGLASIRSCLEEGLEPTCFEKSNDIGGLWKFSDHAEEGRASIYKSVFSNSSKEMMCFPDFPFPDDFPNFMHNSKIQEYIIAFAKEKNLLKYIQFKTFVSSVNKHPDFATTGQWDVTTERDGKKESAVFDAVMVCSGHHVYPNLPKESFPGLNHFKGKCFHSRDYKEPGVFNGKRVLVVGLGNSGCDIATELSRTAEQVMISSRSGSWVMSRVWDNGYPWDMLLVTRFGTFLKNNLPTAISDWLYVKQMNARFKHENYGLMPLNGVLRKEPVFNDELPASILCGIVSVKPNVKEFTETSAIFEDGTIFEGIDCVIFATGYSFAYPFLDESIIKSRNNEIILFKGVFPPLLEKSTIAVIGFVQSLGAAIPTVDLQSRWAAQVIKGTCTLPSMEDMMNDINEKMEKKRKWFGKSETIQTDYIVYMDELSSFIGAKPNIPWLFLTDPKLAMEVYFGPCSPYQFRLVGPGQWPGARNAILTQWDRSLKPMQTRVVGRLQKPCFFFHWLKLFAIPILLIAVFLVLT
Description: as §1

[4] = read-out: fu (unbound fraction)

| SMILES | fraction unbound at 30 min, 0.5 µM ([1]; read-out: PPB, % (converted)) | fraction unbound at 30 min, 0.5 µM [1, 4] | metabolic reactions (metabolite IDs) identified [2] | number of metabolites tentatively identified [2] | S-demethylation, only mediated by one CYP isoform (CYP2D6; 25 µM) | one-step metabolite detected in CYP1A2 incubation (CYP1A2) | one-step metabolite detected in CYP2A6 incubation (CYP2A6) | one-step metabolite detected in CYP2B6 incubation (CYP2B6) | one-step metabolite detected in CYP2C8 incubation (CYP2C8) | one-step metabolite detected in CYP2C9 incubation (CYP2C9) | one-step metabolite detected in CYP2C19 incubation (CYP2C19) | one-step metabolite detected in CYP2D6 incubation (CYP2D6; substrate 4MeO-αP-BP 25 µM, Table S3.2) | one-step metabolite detected in CYP2E1 incubation (CYP2E1) | one-step metabolite detected in CYP3A4 incubation (CYP3A4) | one-step metabolite detected in CYP3A5 incubation (CYP3A5) | one-step metabolite detected in FMO3 incubation [3] |
| --- | --- | --- | --- | --- | --- | --- | --- | --- | --- | --- | --- | --- | --- | --- | --- | --- |
| CCC(C(=O)c1ccc(SC)cc1)N1CCCC1 (stereo not drawn) [Compound 4MeS-αP-BP, 4’-methylthio-α-pyrrolidinobutyrophenone] | 0.16 | 0.16 | S-demethylation (MT2.1), hydroxylation (MT2.2), N-oxidation (MT2.3), lactam formation (MT2.4), N,N-bis-dealkylation (MT2.5), dihydroxylation (MT2.6), S-demethylation + hydroxylation (MT2.7), and N-oxidation + hydroxylation (MT2.8) | 8 | CYP2D6 |  |  |  |  |  |  |  |  |  |  |  |
| CSc1ccc(C(=O)C(C)N2CCOCC2)cc1 (centres unmarked) [4MeS-αMor-PrP, 4’-methylthio-2-morpholinopropiophenone] | 0.14 | 0.14 | S-demethylation (MT3.1), hydroxylation (MT3.2), N-oxidation (MT3.3), oxo reduction (MT3.4), lactam formation (MT3.6), N,O-bis-dealkylation (MT3.7), dehydrogenation (MT3.9), and combinations thereof | 10 |  |  |  |  |  |  |  |  |  |  |  |  |
| CCC(C(=O)c1ccc(O)cc1)N1CCCC1 (centres unmarked) [MO2.2] |  |  |  |  |  | + | - | - | - | - | + | + | - | - | - | - |
